Assay results taken from US20220251124A1, “3,5-BIS(PHENYL)-1H-HETEROARYL DERIVATIVES AS MEDICAMENTS” (INSTITUTE OF BIOTECHNOLOGY CAS, V.V.I., priority 2019, published 2022).
Where two headings read alike, the source gives them in different places.

Tests used:
Assay type in all cases: cell-based
[1] = test system: tamoxifen resistant MCF7 (Tam5R); experiment: crystal violet assay, tamoxifen resistant cells; conditions: MCF7 Tam5R grown in the presence of 5 μM tamoxifen
Protocol: (§1) Compound 1 and a comparative compound deferasirox (DFX) were tested in their efficacy to kill/suppress proliferation of malignant breast cancer MCF7 cells representing estrogen-dependent type of breast cancer. Briefly, 10.000 cells per well were seeded in a 96-well plate on one day and the next day the tested compounds were added and incubated with the cells for 48 hrs. The cells were then fixed with 4% paraformaldehyde, stained with 0.05% crystal violet, washed with PBS, and solubilized in 1% SDS. The absorbance of the plate at 595 nm was then measured, quantifying the number of viable cells.
(§2) To test whether compound 1 is active against resistant cancer cells, we used tamoxifen-resistant MCF7, T47D. The IC50 values were again measured with the crystal violet assay performed as in example 12. We have documented that there is a significant difference in the ability of compound 1 to induce cytostatic and cytotoxic effects between the parental cells sensitive to tamoxifen and the resistant ones that grow even in the presence of tamoxifen (Table 11), yet the IC50 values are still in the nM range, making this compound very efficient.

[2] = test system: tamoxifen resistant T47D (Tam5R); experiment: crystal violet assay, tamoxifen resistant cells; conditions: Homo sapiens, T47D Tam5R grown in the presence of 5 μM tamoxifen
Protocol: as §1, §2

[3] = test system: T47D; experiment: crystal violet assay, cellular viability, 48 hrs; conditions: Homo sapiens, T47D (parental/control)
Protocol: [The source words this procedure for another cell line and reports this cell line under the same test.] as §1
(§3) Compounds 1, 2 and the comparative compound deferasirox were tested in their efficacy to suppress proliferation/kill several malignant cell lines of breast, pancreatic and ovarian origin (MCF7, MDA-MB-231, BxPC3 and OVCAR3). The procedure is identical to that in example 12.

[4] = test system: OVCAR3; experiment: crystal violet assay, cellular viability, 48 hrs; conditions: Homo sapiens, OVCAR-3
Protocol: as §1, §3

[5] = test system: non-malignant fibroblasts (HFP1); experiment: crystal violet assay, cellular viability, 48 hrs; conditions: Fibroblast
Protocol: [The source words this procedure for another cell line and reports this cell line under the same test.] as §1, §3

[6] = test system: leukemia cells; experiment: alamarBlue viability, leukemia cells overall
Protocol: (§4) Compound 1 and a comparative compound deferasirox (DFX) were tested in their efficacy to kill/suppress proliferation of several leukemia cells. Briefly, 10.000 cells per well were seeded in a 96-well plate on one day and the next day the tested compounds were added and incubated with the cells for 48 hrs. Cellular viability was determined as the ability to reduce the probe alamarBlue™ Cell Viability Reagent.

[7] = test system: MDA-MB-231 cells; experiment: crystal violet assay, cellular viability, 48 hrs; conditions: for IC50: MDA-MB-231, crystal violet
Protocol: as §1
Compound 1 and the comparative compound deferasirox were tested in their efficacy to kill/suppress proliferation of malignant MDA-MB-231 cancer cells representing hard to treat triple negative breast cancer. The procedure is identical to that in example 12.

[8] = test system: MCF7; experiment: annexin V/PI staining, cell death induction, 48 hrs
Protocol: (§5) This effect seems to be based mainly on the cytostatic effect of compound 1. To define the ability to kill cells, cell death-inducing potency (cytotoxic efficacy) of DFX and compound 1 have been tested via annexin V/PI staining commonly used as a measure of apoptotic/necrotic cell death. Briefly, cells were seeded in 12-well plate at 100,000 per well, incubated with the selected compounds for 48 hours, then floating cells were spun, adherent cells trypsinized and spun as well followed by the staining with AnnexinV-FITC and PI probes. Cells were then washed with PBS and measured via Fluorescence Activated Sorter.
Since compound 1 is an iron chelator, we have evaluated the effect of pre-loading compound 1 with iron at a 2:1 ratio and then applying it to the cells, followed by measurement of cell death using the Annexin V/PI staining as in example 4.

[9] = test system: OVCAR; experiment: as above
Protocol: as §5

[10] = test system: non-malignant HFP1 cells; experiment: as above; conditions: for dead cells (AnnexinV/PI): 48 hrs, HFP1
Protocol: as §5

[11] = test system: non malignant cells MRC5; experiment: as above
Protocol: as §5

[12] = test system: BxPC3; experiment: as above; conditions: 5 μM
Protocol: as §5

[13] = test system: UPF4D leukemia cell line; experiment: alamarBlue Cell Viability Reagent, 48 hrs
Protocol: as §4

[14] = test system: UPF16A leukemia cell line; experiment: alamarBlue Cell Viability Reagent, 48 hrs
Protocol: as §4

[15] = test system: UPF1H leukemia cell line; experiment: alamarBlue Cell Viability Reagent, 48 hrs
Protocol: as §4

[16] = test system: UPF9T leukemia cell line; experiment: alamarBlue Cell Viability Reagent, 48 hrs
Protocol: as §4

[17] = test system: MCF7 cells; experiment: crystal violet assay, cellular viability (cytostatic and cytotoxic effect), 48 hrs; conditions: Homo sapiens
Protocol: as §1

In the case of `O=C(NCCCCCCCCCC[P+](c1ccccc1)(c1ccccc1)c1ccccc1)c1ccc(-n2nc(-c3ccccc3O)nc2-c2ccccc2O)cc1` [Compound 1, (10-(4-(3,5-bis(2-hydroxyphenyl)-1H-1,2,4-triazol-1-yl)benzamido)decyl) triphenylphosphonium Chloride], the IC50 [1] is reported as 38 nM, the IC50 [2] is reported as 112 nM and the IC50 [3] is reported as 31 nM. The IC50 [4] was 154 nM, the IC50 [5] was 532 nM and the IC50 ([6]; 48 h, read-out: IC50 (suppression of proliferation to 50%)) was 20 to 200 nM. For the same compound, the “same effect at a concentration lower than deferasirox” value ([6]; IC50 versus deferasirox, leukemia cells) was 40-4000 fold, the “efficacy against leukemia cell lines” value ([6]; as seen in previous tables) was 20 to 200 nM and the viability at 0.03 µM ([7]; Homo sapiens, 0.030 μM, MDA-MB-231, read-out: viable cells compared to non-treated controls) was 71.1%. For the same compound, the viability at 0.1 µM ([7]; Homo sapiens, 0.100 μM, MDA-MB-231, read-out: viable cells compared to non-treated controls) was 52.5%, the viability at 0.3 µM ([7]; Homo sapiens, 0.300 μM, MDA-MB-231, read-out: viable cells compared to non-treated controls) was 37.4% and the viability at 1 µM ([7]; Homo sapiens, 1 μM, MDA-MB-231, read-out: viable cells compared to non-treated controls) was 27.8%. It also gave a viability at 3 µM ([7]; Homo sapiens, 3 μM, MDA-MB-231, read-out: viable cells compared to non-treated controls) of 18.2%, a viability at 10 µM ([7]; Homo sapiens, 10 μM, MDA-MB-231, read-out: viable cells compared to non-treated controls) of 0.29% and a viability at 30 µM ([7]; Homo sapiens, 30 μM, MDA-MB-231, read-out: viable cells compared to non-treated controls) of 0.51%. The IC50 ([7]; Homo sapiens, MDA-MB-231, 48 h) was 131 nM, the IC50 ([7]; Homo sapiens, MDA-MB-231, 48 h, text) was 131 nM and the IC50 [7] was 130 nM. For the same compound, the “dead cells (AnnexinV/PI)” value ([8]; 5 μM, +Fe^+3 (pre-loaded with iron at a 2:1 ratio)) was 24.3 (1.1) %, the “dead cells (AnnexinV/PI)” value ([8]; 5 μM, alone) was 38.5 (8.8) % and the “dead cells (AnnexinV/PI)” value ([8]; 10 μM, +Fe^+3 (pre-loaded with iron at a 2:1 ratio)) was 25.7 (2.5) %. For the same compound, the “dead cells (AnnexinV/PI)” value ([8]; 10 μM, alone) was 46.6 (7.8) %, the “dead cells (AnnexinV/PI)” value ([9]; 1 μM) was 31.6 (10.3) % and the “dead cells (AnnexinV/PI)” value ([9]; 2 μM) was 39.7 (9.8) %. The “dead cells (AnnexinV/PI)” value ([9]; 5 μM) was 52.2 (17.5) %, the “dead cells (AnnexinV/PI)” value ([10]; 1 μM) was 12.3 (0.9) % and the “dead cells (AnnexinV/PI)” value ([10]; 2 μM) was 13.6 (1.4) %. For the same compound, the “dead cells (AnnexinV/PI)” value ([10]; 5 μM) was 23.3 (1.1) %, the “concentrations at which toxic effect could be detected” value ([10]; non-malignant HFP1 cells) was “higher than 5 μM” and the “dead cells (AnnexinV/PI)” value ([11]; 1 μM) was 14.5 (1.7) %. The “dead cells (AnnexinV/PI)” value ([11]; 2 μM) was 19.6 (1.9) %, the “dead cells (AnnexinV/PI)” value ([11]; 5 μM) was 15.0 (2.0) % and the “dead cells (AnnexinV/PI)” value [12] was 37.8 (16.1) %. The viability at 0.03 µM ([13]; 0.030 μM, 48 hrs, UPF4D, read-out: viable cells compared to non-treated controls) was 90.1%, the viability at 0.1 µM ([13]; 0.100 μM, 48 hrs, UPF4D, read-out: viable cells compared to non-treated controls) was 49.8% and the viability at 0.3 µM ([13]; 0.300 μM, 48 hrs, UPF4D, read-out: viable cells compared to non-treated controls) was 0.56%. For the same compound, the viability at 3 µM ([13]; 3 μM, 48 hrs, UPF4D, read-out: viable cells compared to non-treated controls) was 0.74%, the viability at 10 µM ([13]; 10 μM, 48 hrs, UPF4D, read-out: viable cells compared to non-treated controls) was 0.1% and the IC50 ([13]; 48 h) was 90 nM. The viability at 0.03 µM ([14]; 0.030 μM, 48 hrs, UPF16A, read-out: viable cells compared to non-treated controls) was 75.7%, the viability at 0.1 µM ([14]; 0.100 μM, 48 hrs, UPF16A, read-out: viable cells compared to non-treated controls) was 50.2% and the viability at 0.3 µM ([14]; 0.300 μM, 48 hrs, UPF16A, read-out: viable cells compared to non-treated controls) was 30.8%. It also gave a viability at 3 µM ([14]; 3 μM, 48 hrs, UPF16A, read-out: viable cells compared to non-treated controls) of 4%, a viability at 10 µM ([14]; 10 μM, 48 hrs, UPF16A, read-out: viable cells compared to non-treated controls) of 0.31% and an IC50 ([14]; 48 h) of 110 nM. For the same compound, the viability at 0.03 µM ([15]; 0.030 μM, 48 hrs, read-out: viable cells compared to non-treated controls) was 94.1%, the viability at 0.1 µM ([15]; 0.100 μM, 48 hrs, read-out: viable cells compared to non-treated controls) was 81.9% and the viability at 0.3 µM ([15]; 0.300 μM, 48 hrs, read-out: viable cells compared to non-treated controls) was 31.1%. It also gave a viability at 3 µM ([15]; 3 μM, 48 hrs, read-out: viable cells compared to non-treated controls) of 5.8%, a viability at 10 µM ([15]; 10 μM, 48 hrs, read-out: viable cells compared to non-treated controls) of 0.04% and an IC50 ([15]; 48 h) of 230 nM. For the same compound, the viability at 0.03 µM ([16]; 0.030 μM, 48 hrs, UPF9T, read-out: viable cells compared to non-treated controls) was 44.8%, the viability at 0.1 µM ([16]; 0.100 μM, 48 hrs, UPF9T, read-out: viable cells compared to non-treated controls) was 10.5% and the viability at 0.3 µM ([16]; 0.300 μM, 48 hrs, UPF9T, read-out: viable cells compared to non-treated controls) was 2%. It also gave a viability at 3 µM ([16]; 3 μM, 48 hrs, UPF9T, read-out: viable cells compared to non-treated controls) of 6.7%, a viability at 10 µM ([16]; 10 μM, 48 hrs, UPF9T, read-out: viable cells compared to non-treated controls) of 6.9% and an IC50 ([16]; 48 h) of 20 nM. It also gave a viability at 0.03 µM ([17]; 0.030 μM, MCF7, read-out: viable cells compared to non-treated controls) of 33.7%, a viability at 0.1 µM ([17]; 0.100 μM, MCF7, read-out: viable cells compared to non-treated controls) of 23.6% and a viability at 0.3 µM ([17]; 0.300 μM, MCF7, read-out: viable cells compared to non-treated controls) of 14.8%. It also gave a viability at 1 µM ([17]; 1 μM, MCF7, read-out: viable cells compared to non-treated controls) of 7.28%, a viability at 3 µM ([17]; 3 μM, MCF7, read-out: viable cells compared to non-treated controls) of 5.2% and a viability at 10 µM ([17]; 10 μM, MCF7, read-out: viable cells compared to non-treated controls) of 2.31%. The viability at 30 µM ([17]; 30 μM, MCF7, read-out: viable cells compared to non-treated controls) was 0.69%, the IC50 ([17]; MCF7 (parental/control), crystal violet, read-out: IC50) was 8 nM and the IC50 ([17]; MCF7, crystal violet, read-out: IC50 (suppression of proliferation to 50%)) was 8 nM.
